Assays:
[1] = refractive index (Na D-line) (dimensionless); xn = mol fraction of the nth substance listed; details: 100.8 kPa, Liquid, Standard Abbe refractometry
[2] = xn = mol fraction of the nth substance listed; details: 100.5 kPa, Liquid; for viscosity: Capillary tube (Ostwald / Ubbelohde) method

CC(C)OC(C)C [diisopropyl ether] + CCO
Details | mass density, 288.15 K [kg/m3] | mass density, 298.15 K [kg/m3] | mass density, 308.15 K [kg/m3] | refractive index, 288.15 K | refractive index, 298.15 K | refractive index, 308.15 K | viscosity, 288.15 K [mPa·s] | viscosity, 298.15 K [mPa·s] | viscosity, 308.15 K [mPa·s]
[1], x1 = 0.05 | – | – | – | 1.36501 | 1.36077 | 1.35646 | – | – | –
[1], x1 = 0.1 | – | – | – | 1.36653 | 1.3621 | 1.35763 | – | – | –
[1], x1 = 0.15 | – | – | – | 1.36768 | 1.3631 | 1.3585 | – | – | –
[1], x1 = 0.2 | – | – | – | 1.3686 | 1.36392 | 1.35923 | – | – | –
[1], x1 = 0.25 | – | – | – | 1.36935 | 1.36456 | 1.35977 | – | – | –
[1], x1 = 0.3 | – | – | – | 1.36998 | 1.3651 | 1.36021 | – | – | –
[1], x1 = 0.35 | – | – | – | 1.37047 | 1.3655 | 1.36052 | – | – | –
[1], x1 = 0.4 | – | – | – | 1.37086 | 1.36582 | 1.36077 | – | – | –
[1], x1 = 0.45 | – | – | – | 1.37117 | 1.36608 | 1.36093 | – | – | –
[1], x1 = 0.5 | – | – | – | 1.3714 | 1.3663 | 1.36103 | – | – | –
[1], x1 = 0.55 | – | – | – | 1.37159 | 1.36642 | 1.36107 | – | – | –
[1], x1 = 0.6 | – | – | – | 1.37174 | 1.36648 | 1.36109 | – | – | –
[1], x1 = 0.65 | – | – | – | 1.37183 | 1.36649 | 1.36108 | – | – | –
[1], x1 = 0.7 | – | – | – | 1.37187 | 1.36646 | 1.36098 | – | – | –
[1], x1 = 0.7499 | – | – | – | 1.37187 | 1.36638 | 1.36085 | – | – | –
[1], x1 = 0.8 | – | – | – | 1.37181 | 1.36627 | 1.36068 | – | – | –
[1], x1 = 0.85 | – | – | – | 1.37167 | 1.36611 | 1.36044 | – | – | –
[1], x1 = 0.9 | – | – | – | 1.3715 | 1.36588 | 1.36019 | – | – | –
[1], x1 = 0.95 | – | – | – | 1.3712 | 1.36558 | 1.35986 | – | – | –
[1], x1 = 1 | – | – | – | 1.37093 | 1.36524 | 1.35944 | – | – | –
[2], x1 = 0.05 | 788.65 | 779.96 | 771.13 | – | – | – | 1.176 | 0.975 | 0.814
[2], x1 = 0.1 | 783.6 | 774.78 | 765.84 | – | – | – | 1.046 | 0.875 | 0.736
[2], x1 = 0.15 | 779.02 | 770.05 | 760.98 | – | – | – | 0.946 | 0.793 | 0.67
[2], x1 = 0.2 | 774.89 | 765.79 | 756.58 | – | – | – | 0.85 | 0.719 | 0.612
[2], x1 = 0.25 | 770.69 | 761.45 | 752.16 | – | – | – | 0.771 | 0.656 | 0.562
[2], x1 = 0.3 | 766.92 | 757.63 | 748.12 | – | – | – | 0.705 | 0.603 | 0.52
[2], x1 = 0.35 | 763.36 | 753.93 | 744.32 | – | – | – | 0.648 | 0.558 | 0.484
[2], x1 = 0.4 | 760.02 | 750.47 | 740.76 | – | – | – | 0.599 | 0.519 | 0.453
[2], x1 = 0.45 | 756.93 | 747.28 | 737.5 | – | – | – | 0.558 | 0.486 | 0.426
[2], x1 = 0.5 | 753.87 | 744.13 | 734.3 | – | – | – | 0.523 | 0.458 | 0.403
[2], x1 = 0.55 | 750.98 | 741.18 | 731.25 | – | – | – | 0.493 | 0.432 | 0.383
[2], x1 = 0.6 | 748.29 | 738.39 | 728.37 | – | – | – | 0.468 | 0.412 | 0.365
[2], x1 = 0.65 | 745.73 | 735.73 | 725.59 | – | – | – | 0.444 | 0.392 | 0.35
[2], x1 = 0.7 | 743.19 | 733.1 | 722.86 | – | – | – | 0.423 | 0.376 | 0.336
[2], x1 = 0.7499 | 740.73 | 730.59 | 720.23 | – | – | – | 0.407 | 0.362 | 0.324
[2], x1 = 0.8 | 738.4 | 728.19 | 717.79 | – | – | – | 0.392 | 0.35 | 0.314
[2], x1 = 0.85 | 735.94 | 725.76 | 715.31 | – | – | – | 0.378 | 0.339 | 0.305
[2], x1 = 0.9 | 733.6 | 723.36 | 712.89 | – | – | – | 0.367 | 0.329 | 0.297
[2], x1 = 0.95 | 731.15 | 720.98 | 710.53 | – | – | – | 0.357 | 0.32 | 0.289
[2], x1 = 1 | 729.09 | 718.7 | 708.12 | – | – | – | 0.348 | 0.313 | 0.283
